Earlier results in patent US12527793B2, “Pharmaceutical compositions” (Shenzhen Pharmacin Co., Ltd., priority 2020, dated 2026).

conditions: background statement

SMILES | Solubility in water
Cc1cn(-c2cc(NC(=O)c3ccc(C)c(Nc4nccc(-c5cccnc5)n4)c3)cc(C(F)(F)F)c2)cn1 [Nilotinib, 4-methyl-N-[3-(4-methyl-1H-imidazol-1-yl)-5-(trifluoromethyl)phenyl]-3-{[4-(pyridin-3-yl)pyrimidin-2-yl]amino}benzamide] | practically insoluble

conditions: source footnote 1: Pallicer et al., ADMET & DMPK 2(2) (2014) 107-114

SMILES | Experimental log P
CN(C)CCC(c1ccc(Cl)cc1)c1ccccn1 (stereo not shown) [Chlorphenamine] | 3.17^1
COc1ccc([C@@H]2Sc3ccccc3N(CCN(C)C)C(=O)[C@@H]2OC(C)=O)cc1 [Diltiazem] | 2.84^1
CCc1cc2c(s1)N(C)C(=O)CN=C2c1ccccc1Cl [Clotiazepam] | 3.49^1
O=C(O)CCC(=O)c1ccc(-c2ccccc2)cc1 [Fenbufen] | 3.2^1
O=C(CCCN1CCC(O)(c2ccc(Cl)cc2)CC1)c1ccc(F)cc1 [Haloperidol] | 3.82^1
O=c1n(CCCN2CCN(c3cccc(Cl)c3)CC2)nc2ccccn12 [Trazodone] | 2.82^1
COc1ccc2c(c1)c(CC(=O)O)c(C)n2C(=O)c1ccc(Cl)cc1 [Indometacin] | 4.1^1
CN(C)CCC(c1ccc(Br)cc1)c1ccccn1 (stereo not shown) [Brompheniramine] | 2.88^1
CN(CCOc1ccc(CC2SC(=O)NC2=O)cc1)c1ccccn1 (stereo not shown) [Rosiglitazone] | 3.1^1
CCCCN1CCCCC1C(=O)Nc1c(C)cccc1C (stereo not shown) [Bupivacaine] | 3.41^1
CC(C)/N=c1\cc2n(-c3ccc(Cl)cc3)c3ccccc3nc-2cc1Nc1ccc(Cl)cc1 [Clofazimine] | 6.3^1
O=C1C[C@@H](c2ccc(O)cc2)Oc2cc(O)cc(O)c21 [Naringenin] | 2.52^1
CNCC[C@H](Oc1cccc2ccccc12)c1cccs1 [Duloxetine] | 4.54^1
CNCCC(Oc1ccc(C(F)(F)F)cc1)c1ccccc1 (stereo not shown) [Fluoxetine] | 4.42^1
CN[C@H]1CC[C@@H](c2ccc(Cl)c(Cl)c2)c2ccccc21 [Sertraline] | 5.17^1
O=c1cc(-c2ccccc2)oc2cc(O)cc(O)c12 [Chrysin] | 3.52^1

SMILES | Experimental log P
CCC1=C(C)CN(C(=O)NCCc2ccc(S(=O)(=O)NC(=O)N[C@H]3CC[C@H](C)CC3)cc2)C1=O [Glimepiride] | 3.97^1
CC(C)(Oc1ccc(Cl)cc1)C(=O)O [Clofibric acid] | 2.57^1
Cc1ccc(-c2cc(C(F)(F)F)nn2-c2ccc(S(N)(=O)=O)cc2)cc1 [Celecoxib] | 3.91^1
OCCOCCN1CCN(C2=Nc3ccccc3Sc3ccccc32)CC1 [Quetiapine] | 3.13^1
O=C(O)c1ccccc1Nc1cccc(C(F)(F)F)c1 [Flufenamic acid] | 5.19^1
COc1ccc(C(CN(C)C)C2(O)CCCCC2)cc1 (stereo not shown) [Venlafaxine] | 3.05^1
COc1cccc(C2(O)CCCCC2CN(C)C)c1 (stereo not shown) [Tramadol] | 2.7^1
O=c1cc(-c2ccc(O)cc2)oc2cc(O)cc(O)c12 [Apigenin] | 3.02^1
C=C[C@H]1CN2CC[C@H]1C[C@H]2[C@H](O)c1ccnc2ccccc12 [Cinchonidine] | 2.6^1
COc1ccc([C@@H]2CC(=O)c3c(O)cc(O)cc3O2)cc1O [Hesperetin] | 2.60^1
COC(=O)[C@H](c1ccccc1Cl)N1CCc2sccc2C1 [Clopidogrel] | 4.52^1
CN(C)CCCN1c2ccccc2Sc2ccc(Cl)cc21 [Chlorpromazine] | 5.27^1
C=C[C@H]1C[N@@]2CC[C@H]1C[C@H]2[C@H](O)c1ccnc2ccc(OC)cc12 [Quinine] | 2.64^1
CC(C(=O)O)c1ccc(-c2ccccc2)c(F)c1 (stereo not shown) [Flurbiprofen] | 3.84^1
CCN(CC)CCN1C(=O)CN=C(c2ccccc2F)c2cc(Cl)ccc21 [Flurazepam] | 3.94^1

same assay, conditions: source footnote 5: experimental values listed on www.drugbank.ca

SMILES | Experimental log P
COC(=O)c1ccc2c(c1)NC(=O)/C2=C(\Nc1ccc(N(C)C(=O)CN2CCN(C)CC2)cc1)c1ccccc1 [nintedanib] | 3.0 ^5
CCCS(=O)(=O)Nc1ccc(F)c(C(=O)c2c[nH]c3ncc(-c4ccc(Cl)cc4)cc23)c1F [vemurafenib] | 5.1 ^5
C[C@@H](Oc1cc(-c2cnn(C3CCNCC3)c2)cnc1N)c1c(Cl)ccc(F)c1Cl [crizotinib] | 1.83 ^5
CO[C@@H]1[C@H](N(C)C(=O)c2ccccc2)C[C@H]2O[C@]1(C)n1c3ccccc3c3c4c(c5c6ccccc6n2c5c31)C(=O)NC4 [midostaurin] | 5.89 ^5
C=CC(=O)N1CCC[C@@H](n2nc(-c3ccc(Oc4ccccc4)cc3)c3c(N)ncnc32)C1 [Ibrutinib] | 3.97 ^5
CS(=O)(=O)CCNCc1ccc(-c2ccc3ncnc(Nc4ccc(OCc5cccc(F)c5)c(Cl)c4)c3c2)o1 [lapatinib] | 5.4 ^5
CNC(=O)c1cc(Oc2ccc(NC(=O)Nc3ccc(Cl)c(C(F)(F)F)c3)cc2)ccn1 [sorafenib] | 3.8 ^5
Cc1nc(Nc2ncc(C(=O)Nc3c(C)cccc3Cl)s2)cc(N2CCN(CCO)CC2)n1 [dasatinib] | 1.8 ^5
